Data set [1] is described as follows: Hepatocyte (Hep) intrinsic clearance, rat. Format: in vitro ADME. To be noted: hepatocytes.
A further data set has as its target CYP2D6 (Homo sapiens (Human), UniProt P10635). Kind of data set: CYP450 inhibition at 10 μM, CYP2D6. Format: in vitro ADME. To be noted: read-out: CYP 450 % INH @ 10 μM.
Data set [2] in a line: Liver microsome (LM) intrinsic clearance, human. Format: in vitro ADME.
In the next data set the target is CYP3A4 (Homo sapiens (Human), UniProt P08684). Description: CYP450 inhibition at 10 μM, CYP3A4. The class given is in vitro ADME. To be noted: human, 10 μM, read-out: CYP 450 % INH @ 10 μM.
Chain of CYP3A4 (P08684 whole entry): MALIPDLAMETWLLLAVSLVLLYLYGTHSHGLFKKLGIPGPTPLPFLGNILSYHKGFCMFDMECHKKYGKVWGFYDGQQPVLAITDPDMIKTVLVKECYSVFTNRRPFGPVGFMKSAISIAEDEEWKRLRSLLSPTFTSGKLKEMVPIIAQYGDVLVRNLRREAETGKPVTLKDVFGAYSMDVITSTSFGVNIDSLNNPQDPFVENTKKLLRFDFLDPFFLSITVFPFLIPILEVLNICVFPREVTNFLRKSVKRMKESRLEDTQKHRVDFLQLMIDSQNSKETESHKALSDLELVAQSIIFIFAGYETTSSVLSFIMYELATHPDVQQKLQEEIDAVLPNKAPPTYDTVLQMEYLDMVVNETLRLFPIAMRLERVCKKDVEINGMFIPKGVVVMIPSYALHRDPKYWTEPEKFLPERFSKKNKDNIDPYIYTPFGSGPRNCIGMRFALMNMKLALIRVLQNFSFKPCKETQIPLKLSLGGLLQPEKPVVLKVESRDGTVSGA
A short description of data set [3]: Hepatocyte (Hep) intrinsic clearance, human. To be noted: hepatocytes. The class given is in vitro ADME.
Data set [4] has as its target T1, adenosine A1 receptor (Homo sapiens (Human), UniProt P30542). Kind of data set: A1 cAMP IC50 assay (Table 1). Format: biochemical.
Another data set deals with adenosine A2A receptor (Homo sapiens (Human), UniProt P29274). Kind of data set: Adenosine receptor activity assay (Table 1), A2A activity. The class given is biochemical. To be noted: read-out: Ave A2A cAMP IC50.
Chain of adenosine A2A receptor (P29274 whole entry): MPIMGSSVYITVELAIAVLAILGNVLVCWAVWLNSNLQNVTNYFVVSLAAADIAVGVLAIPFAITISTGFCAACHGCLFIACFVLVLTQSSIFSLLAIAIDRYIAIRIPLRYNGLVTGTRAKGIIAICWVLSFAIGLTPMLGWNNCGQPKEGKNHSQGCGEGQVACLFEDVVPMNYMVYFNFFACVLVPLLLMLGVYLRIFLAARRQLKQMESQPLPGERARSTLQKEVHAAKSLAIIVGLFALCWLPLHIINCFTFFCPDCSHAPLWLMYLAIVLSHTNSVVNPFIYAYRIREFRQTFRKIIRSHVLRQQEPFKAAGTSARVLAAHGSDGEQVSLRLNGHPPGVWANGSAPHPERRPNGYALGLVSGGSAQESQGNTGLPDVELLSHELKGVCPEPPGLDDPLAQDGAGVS
The target in data set [5] is T2, adenosine A3 receptor (Homo sapiens (Human), UniProt P0DMS8). Kind of data set: A3 cAMP IC50 assay (Table 1). The class given is biochemical.
T2 sequence (P0DMS8 whole entry): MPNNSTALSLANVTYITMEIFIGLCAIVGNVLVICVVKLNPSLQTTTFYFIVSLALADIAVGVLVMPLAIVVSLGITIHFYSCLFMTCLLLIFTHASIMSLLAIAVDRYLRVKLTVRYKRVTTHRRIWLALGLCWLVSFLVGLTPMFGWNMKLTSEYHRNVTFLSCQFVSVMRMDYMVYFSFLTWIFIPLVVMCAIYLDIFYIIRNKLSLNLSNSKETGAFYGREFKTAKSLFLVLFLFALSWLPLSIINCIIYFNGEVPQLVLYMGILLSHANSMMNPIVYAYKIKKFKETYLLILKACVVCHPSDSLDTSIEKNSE
Data set [6] is described as follows: Liver microsome (LM) intrinsic clearance, rat. The class given is in vitro ADME.
Another data set has as its target adenosine A2B receptor (Homo sapiens (Human), UniProt P29275). Description: Adenosine receptor activity assay (Table 1), A2B activity. Format: biochemical. To be noted: for Ratio: A2A activity to A2B activity (A2A/A2B); for IC50: read-out: Ave A2B cAMP IC50.
Data set [7] in a line: Hepatocyte intrinsic clearance, rat. To be noted: hepatocytes. Format: in vitro ADME.
Data set [8] addresses T2, adenosine A3 receptor. Kind of data set: Adenosine receptor activity assay (Table 1), A3 cAMP. Format: cell-based.
Data set [9] has as its target T1, adenosine A1 receptor. Description: Adenosine receptor activity assay (Table 1), A1 cAMP. The class given is cell-based.
The nature of data set [10]: Hepatocyte intrinsic clearance, human. The class given is in vitro ADME. To be noted: hepatocytes.

Molecules are shown by their SMILES.

Chain of adenosine A2B receptor (P29275 whole entry): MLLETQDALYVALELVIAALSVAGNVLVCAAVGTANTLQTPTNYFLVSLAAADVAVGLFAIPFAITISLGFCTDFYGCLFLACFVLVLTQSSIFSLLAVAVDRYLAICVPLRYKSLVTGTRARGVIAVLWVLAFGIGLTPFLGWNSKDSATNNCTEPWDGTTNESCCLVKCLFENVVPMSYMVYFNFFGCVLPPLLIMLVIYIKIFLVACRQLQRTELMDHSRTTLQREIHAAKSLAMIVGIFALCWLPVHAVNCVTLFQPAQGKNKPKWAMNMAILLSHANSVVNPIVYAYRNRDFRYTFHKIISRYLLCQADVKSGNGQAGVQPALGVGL
Chain of CYP2D6 (P10635 whole entry): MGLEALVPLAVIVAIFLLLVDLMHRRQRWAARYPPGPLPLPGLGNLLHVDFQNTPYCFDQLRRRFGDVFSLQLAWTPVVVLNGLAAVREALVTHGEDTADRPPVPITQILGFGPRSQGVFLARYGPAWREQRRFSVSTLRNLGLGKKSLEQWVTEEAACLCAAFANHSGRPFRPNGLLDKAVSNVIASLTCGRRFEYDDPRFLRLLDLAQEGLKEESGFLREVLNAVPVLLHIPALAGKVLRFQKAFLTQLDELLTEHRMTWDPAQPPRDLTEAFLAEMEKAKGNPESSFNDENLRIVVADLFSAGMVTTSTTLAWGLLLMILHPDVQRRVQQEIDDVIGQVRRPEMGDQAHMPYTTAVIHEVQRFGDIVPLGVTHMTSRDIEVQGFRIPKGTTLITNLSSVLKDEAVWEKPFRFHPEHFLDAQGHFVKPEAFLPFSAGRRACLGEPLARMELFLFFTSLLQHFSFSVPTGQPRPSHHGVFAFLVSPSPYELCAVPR
T1 sequence (P30542 whole entry): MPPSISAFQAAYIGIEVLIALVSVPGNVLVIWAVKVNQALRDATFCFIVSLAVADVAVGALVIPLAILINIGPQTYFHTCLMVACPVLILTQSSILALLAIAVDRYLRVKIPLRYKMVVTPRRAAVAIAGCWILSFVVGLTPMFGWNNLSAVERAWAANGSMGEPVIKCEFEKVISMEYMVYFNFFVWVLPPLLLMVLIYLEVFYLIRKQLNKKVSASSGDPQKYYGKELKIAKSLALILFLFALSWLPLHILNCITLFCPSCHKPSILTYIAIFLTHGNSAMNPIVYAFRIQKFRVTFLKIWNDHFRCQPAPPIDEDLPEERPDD

In the case of `C[C@H](Nc1nc(C(=O)N2CC(F)(F)C2)c2sccc2n1)c1cccnc1` [Example Z32, (S)-(3,3-Difluoroazetidin-1-yl)(2-((1-(pyridin-3-yl)ethyl)amino)thieno[3,2-d]pyrimidin-4-yl)methanone], the hepatocyte CLint in data set [1] was found to be 76.2 µL/min/1e6 cells; in data set [3], 63.2 µL/min/1e6 cells. In addition, the inhibition at 10 µM on CYP2D6 amounted to 7%; on CYP3A4, 49%. Also, the “LM CLint” value in [2] is on record as 51.28 μL/min/mg/protein; in [6] it was 33.25 μL/min/mg/protein. Further, the IC50 against adenosine A1 receptor [4] is above 500 nM; on adenosine A2A receptor it was 100 to 500 nM; against adenosine A3 receptor [5], above 500 nM; at adenosine A2B receptor, 10 to 50 nM. The Ratio at adenosine A2B receptor was 6.64.
As for `C[C@@H]1CCN(C(=O)c2nc(N[C@@H](C)c3cccnc3)nc3ccsc23)C1` [Example Z34, ((R)-3-Methylpyrrolidin-1-yl)(2-(((S)-1-(pyridin-3-yl)ethyl)amino)thieno[3,2-d]pyrimidin-4-yl)methanone], the hepatocyte CLint in data set [1] came to 131 µL/min/1e6 cells; in data set [3], 23.5 µL/min/1e6 cells. The inhibition at 10 µM came to 22% at CYP2D6 and 82% at CYP3A4. The “LM CLint” value was 53.26 μL/min/mg/protein in [2] and 81.23 μL/min/mg/protein in data set [6]. Also, the IC50 is above 500 nM against adenosine A1 receptor [4], 100 to 500 nM on adenosine A2A receptor, above 500 nM against adenosine A3 receptor [5] and 10 to 50 nM on adenosine A2B receptor. Moreover, the Ratio on adenosine A2B receptor is recorded as 4.99.
With `C[C@H](NC(=O)c1nc(N[C@@H](C)c2ccccn2)nc2ccsc12)c1ccccn1` [Example Z54, N—((S)-1-(Pyridin-2-yl)ethyl)-2-(((S)-1-(pyridin-2-yl)ethyl)amino)thieno[3,2-d]pyrimidine-4-carboxamide], the hepatocyte CLint stood at 126 µL/min/1e6 cells in data set [1] and 24.9 µL/min/1e6 cells in data set [3]. Moreover, the inhibition at 10 µM on CYP2D6 was determined as 3%; at CYP3A4, 38%. Further, the “LM CLint” value was 14.10 μL/min/mg/protein in data set [2] and 39.84 μL/min/mg/protein in data set [6]. Besides, the IC50 on adenosine A1 receptor [4] is above 500 nM; on adenosine A2A receptor it was 10 to 50 nM; against adenosine A3 receptor [5], 50 to 100 nM; on adenosine A2B receptor it was 10 to 50 nM. Also, the Ratio at adenosine A2B receptor turned out to be 1.42.
In the case of `Cc1cncc(CNc2nc(C(=O)N3CCC3)c3sccc3n2)c1` [Example Z55, Azetidin-1-yl(2-(((5-methylpyridin-3-yl)methyl)amino)thieno[3,2-d]pyrimidin-4-yl)methanone], the hepatocyte CLint in data set [1] is 64.7 µL/min/1e6 cells; in [3], 25.6 µL/min/1e6 cells. The inhibition at 10 µM at CYP2D6 was found to be 19%; on CYP3A4, 76%. Further, the “LM CLint” value in data set [2] is on record as 63.74 μL/min/mg/protein; in data set [6], 94.74 μL/min/mg/protein. Moreover, the IC50 at adenosine A1 receptor [4] was above 500 nM; on adenosine A2A receptor, above 500 nM; against adenosine A3 receptor [5], above 500 nM; on adenosine A2B receptor, 10 to 50 nM. Further, at adenosine A2B receptor, the Ratio came to 127.22.
`O=C(c1nc(NCc2cncc(F)c2)nc2ccsc12)N1CC[C@@H](F)C1` [Example Z60, (R)-(2-(((5-Fluoropyridin-3-yl)methyl)amino)thieno[3,2-d]pyrimidin-4-yl)(3-fluoropyrrolidin-1-yl)methanone]: the figures for the hepatocyte CLint in data set [1] and in data set [3] were 63.1 µL/min/1e6 cells and 22.8 µL/min/1e6 cells, respectively. For the same compound, the values for the inhibition at 10 µM at CYP2D6 and at CYP3A4 were 11% and 65%, respectively. Besides, the results for the “LM CLint” value in data set [2] and in data set [6] were 34.26 μL/min/mg/protein and 46.03 μL/min/mg/protein, respectively. For the same compound, the IC50 against adenosine A1 receptor [4] is above 500 nM; on adenosine A2A receptor, 100 to 500 nM; against adenosine A3 receptor [5], above 500 nM; at adenosine A2B receptor it was below 10 nM. In addition, the Ratio at adenosine A2B receptor was 66.23.
For `O=C(c1nc(NCc2cncc(F)c2)nc2ccsc12)N1CCC1` [Example Z61, Azetidin-1-yl(2-(((5-fluoropyridin-3-yl)methyl)amino)thieno[3,2-d]pyrimidin-4-yl)methanone], the values for the hepatocyte CLint in data set [1] and in data set [3] were 44.9 µL/min/1e6 cells and 15.4 µL/min/1e6 cells, respectively. In addition, the inhibition at 10 µM at CYP2D6 worked out at 10%; at CYP3A4, 38%. Besides, the entries for the “LM CLint” value in data set [2] and in [6] were 33.16 μL/min/mg/protein and 44.58 μL/min/mg/protein, respectively. The IC50 on adenosine A1 receptor [4] was above 500 nM; at adenosine A2A receptor it was 100 to 500 nM; against adenosine A3 receptor [5], above 500 nM; at adenosine A2B receptor, below 10 nM. Moreover, the Ratio on adenosine A2B receptor came to 84.42.
With `O=C(c1nc(NCc2cncc(F)c2)nc2ccsc12)N1CC[C@H](O)C1` [Example Z62, (S)-(2-(((5-Fluoropyridin-3-yl)methyl)amino)thieno[3,2-d]pyrimidin-4-yl)(3-hydroxypyrrolidin-1-yl)methanone], the hepatocyte CLint is 25.6 µL/min/1e6 cells in [1] and 7.12 µL/min/1e6 cells in data set [3]. Moreover, the values for the inhibition at 10 µM at CYP2D6 and on CYP3A4 were 5% and 34%, respectively. The “LM CLint” value amounted to 10.76 μL/min/mg/protein in data set [2] and 12.51 μL/min/mg/protein in [6]. Also, the IC50 against adenosine A1 receptor [4] is above 500 nM; at adenosine A2A receptor, above 500 nM; against adenosine A3 receptor [5], above 500 nM; on adenosine A2B receptor, 10 to 50 nM. Also, on adenosine A2B receptor, the Ratio came out at 60.76.
Take `C[C@H]1CCN(C(=O)c2nc(N[C@@H](C)c3cccnc3)nc3ccsc23)C1` [Example Z63, ((S)-3-Methylpyrrolidin-1-yl)(2-(((S)-1-(pyridin-3-yl)ethyl)amino)thieno[3,2-d]pyrimidin-4-yl)methanone]: the results for the hepatocyte CLint in [1] and in [3] were 65.9 µL/min/1e6 cells and 24.5 µL/min/1e6 cells, respectively. Moreover, the inhibition at 10 µM on CYP2D6 stood at 39%; on CYP3A4, 83%. In addition, the “LM CLint” value in data set [2] is recorded as 47.64 μL/min/mg/protein; in [6], 71.55 μL/min/mg/protein. The IC50 at adenosine A1 receptor [4] was above 500 nM; on adenosine A2A receptor, 100 to 500 nM; on adenosine A3 receptor [5] it was above 500 nM; at adenosine A2B receptor, 10 to 50 nM. On adenosine A2B receptor, the Ratio was found to be 12.78.
In the case of `Cc1cc2nc(N[C@@H](C)c3cncc(F)c3)nc(C(=O)N3CC[C@H](O)C3)c2s1` [Example Z249, (2-(((S)-1-(5-Fluoropyridin-3-yl)ethyl)amino)-6-methylthieno[3,2-d]pyrimidin-4-yl)((S)-3-hydroxypyrrolidin-1-yl)methanone], the hepatocyte CLint is 20.9 µL/min/1e6 cells in [7] and 4.53 µL/min/1e6 cells in data set [10]. In addition, the IC50 is above 500 nM against adenosine A3 receptor [8], above 500 nM against adenosine A1 receptor [9], 100 to 500 nM at adenosine A2A receptor and below 10 nM on adenosine A2B receptor. The Ratio at adenosine A2B receptor is 197.12.
In the case of `Cc1cc2nc(N[C@@H](C)c3cncc(F)c3)nc(C(=O)N3CC[C@@H](O)C3)c2s1` [Example Z250, (2-(((S)-1-(5-Fluoropyridin-3-yl)ethyl)amino)-6-methylthieno[3,2-d]pyrimidin-4-yl)((R)-3-hydroxypyrrolidin-1-yl)methanone], the hepatocyte CLint was found to be 23.9 µL/min/1e6 cells in data set [7] and 11.9 µL/min/1e6 cells in data set [10]. Also, the IC50 was above 500 nM at adenosine A3 receptor [8], above 500 nM at adenosine A1 receptor [9], 100 to 500 nM at adenosine A2A receptor and below 10 nM on adenosine A2B receptor. In addition, at adenosine A2B receptor, the Ratio is 179.59.
For the compound `Cc1cc2nc(N[C@@H](C)c3cncc(F)c3)nc(C(=O)N3CC(O)C3)c2s1` [Example Z267, (S)-(2-((1-(5-Fluoropyridin-3-yl)ethyl)amino)-6-methylthieno[3,2-d]pyrimidin-4-yl)(3-hydroxyazetidin-1-yl)methanone], the results for the intrinsic clearance (hepatocyte CLint) in [7] and in [10] were 45.9 µL/min/1e6 cells and 9.44 µL/min/1e6 cells, respectively. The IC50 against adenosine A3 receptor [8] was 50 to 100 nM; on adenosine A1 receptor [9] it was 50 to 100 nM; at adenosine A2A receptor, 50 to 100 nM; on adenosine A2B receptor, below 10 nM. In addition, the Ratio at adenosine A2B receptor is recorded as 105.81.
With `Cc1cc2nc(N[C@@H](C)c3cncc(F)c3)nc(C(=O)NC[C@H](C)O)c2s1` [Example Z277, 2-(((S)-1-(5-Fluoropyridin-3-yl)ethyl)amino)-N—((S)-2-hydroxypropyl)-6-methylthieno[3,2-d]pyrimidine-4-carboxamide], the figures for the hepatocyte CLint in [7] and in data set [10] were 65.9 µL/min/1e6 cells and 16.4 µL/min/1e6 cells, respectively. Further, the IC50 at adenosine A3 receptor [8] was 50 to 100 nM; on adenosine A1 receptor [9], 50 to 100 nM; at adenosine A2A receptor, 100 to 500 nM; on adenosine A2B receptor, below 10 nM. In addition, the Ratio at adenosine A2B receptor was determined as 167.29.
In the case of `Cc1cc2nc(N[C@@H](C)c3cncc(F)c3)nc(C(=O)NC[C@@H](C)O)c2s1` [Example Z278, 2-(((S)-1-(5-Fluoropyridin-3-yl)ethyl)amino)-N—((R)-2-hydroxypropyl)-6-methylthieno[3,2-d]pyrimidine-4-carboxamide], the hepatocyte CLint in data set [7] amounted to 43.3 µL/min/1e6 cells; in [10], 14.8 µL/min/1e6 cells. The IC50 was 50 to 100 nM against adenosine A3 receptor [8], 50 to 100 nM against adenosine A1 receptor [9], 50 to 100 nM on adenosine A2A receptor and below 10 nM at adenosine A2B receptor. Besides, the Ratio on adenosine A2B receptor is 87.33.

The record behind these values is patent publication US11254686B1 (Corvus Pharmaceuticals, Inc., priority 2017, dated 2022).
